“And” between values parts separate entries of the source, which are not always exact repeats. Equal values may be shown once. Toxic doses and inconclusive results are not listed.
System: BDF1 mice, P388 leukemia ip, median survival T/C
Experiment: NCI In Vivo Anticancer Drug Screen. Data for tumor model P388 Leukemia (intraperitoneal) in B6D2F1 (BDF1) mice
Conditions: endpoint: median survival time, higher = longer survival
Method in brief: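 Survival ratio, drug arm over vehicle arm, in mice with a transplanted tumour.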

[1] = dose: 100.0 mg/kg/injection, schedule: Q01DX009 (ip), vehicle: saline with Tween-80
[2] = dose: 100.0 mg/kg/injection, schedule: Q04DX003 (ip), vehicle: saline with Tween-80
[3] = dose: 200.0 mg/kg/injection, schedule: Q04DX003 (ip), vehicle: saline with Tween-80

CCc1oc(=O)c(Cc2c(O)cc(O)c3c2OC(c2ccccc2)CC3=O)c(O)c1C (stereo not drawn)
T/C (dose: 4.0 mg/kg/injection, schedule: Q01DX009 (ip), vehicle: Klucel (hydroxypropylcellulose) (HPC)): 95 % of control
T/C (dose: 8.0 mg/kg/injection, schedule: Q01DX009 (ip), vehicle: Klucel (hydroxypropylcellulose) (HPC)): 100 % of control
T/C (dose: 16.0 mg/kg/injection, schedule: Q01DX009 (ip), vehicle: Klucel (hydroxypropylcellulose) (HPC)): 93 % of control
T/C (dose: 32.0 mg/kg/injection, schedule: Q01DX009 (ip), vehicle: Klucel (hydroxypropylcellulose) (HPC)): 93 % of control

COc1cc([C@@H]2c3cc4c(cc3[C@@H](OC3OC5CO[C@@H](c6cccs6)OC5C(O)C3O)[C@H]3COC(=O)[C@H]23)OCO4)cc(OC)c1O (stereo partly drawn)
T/C (dose: 0.25 mg/kg/injection, schedule: Q01DX010 (ip), vehicle: saline): 166 % of control and 175 % of control
T/C (dose: 0.5 mg/kg/injection, schedule: Q01DX010 (ip), vehicle: saline): 179 % of control and 183 % of control
T/C (dose: 1.0 mg/kg/injection, schedule: Q01DX010 (ip), vehicle: saline): 166 % of control and 216 % of control
T/C (dose: 2.0 mg/kg/injection, schedule: Q01DX010 (ip), vehicle: saline): 233 % of control and 250 % of control
T/C (dose: 2.88 mg/kg/injection, schedule: Q04DX003 (ip), vehicle: saline): 300 % of control
T/C (dose: 3.24 mg/kg/injection, schedule: Q04DX003 (ip), vehicle: clinical formulation): 327 % of control
T/C (dose: 4.0 mg/kg/injection, schedule: Q01DX010 (ip), vehicle: saline): 100 % of control
T/C (dose: 4.8 mg/kg/injection, schedule: Q04DX003 (ip), vehicle: saline): 596 % of control
T/C (dose: 5.4 mg/kg/injection, schedule: Q04DX003 (ip), vehicle: clinical formulation): 557 % of control
T/C (dose: 8.0 mg/kg/injection, schedule: Q04DX003 (ip), vehicle: saline): 378 % of control
T/C (dose: 9.0 mg/kg/injection, schedule: Q04DX003 (ip), vehicle: clinical formulation): 557 % of control
T/C (dose: 13.33 mg/kg/injection, schedule: Q04DX003 (ip), vehicle: saline): 240 % of control
T/C (dose: 15.0 mg/kg/injection, schedule: Q04DX003 (ip), vehicle: clinical formulation): 558 % of control

COC(=O)C(CSCSC)NC(=O)/C=C/c1ccc(C)cc1 (stereo not drawn)
T/C (dose: 50.0 mg/kg/injection, schedule: Q01DX009 (ip), vehicle: saline with Tween-80): 109 % of control
T/C [1]: 109 % of control
T/C [2]: 91 % of control
T/C (dose: 200.0 mg/kg/injection, schedule: Q01DX009 (ip), vehicle: saline with Tween-80): 92 % of control
T/C [3]: 91 % of control
T/C (dose: 400.0 mg/kg/injection, schedule: Q01DX009 (ip), vehicle: saline with Tween-80): 100 % of control
T/C (dose: 400.0 mg/kg/injection, schedule: Q04DX003 (ip), vehicle: saline with Tween-80): 88 % of control

CCCCCCCCC(C(O)c1ccccc1)C(O)(C(F)(F)F)C(F)(F)F (stereo not drawn)
T/C (dose: 100.0 mg/kg/injection, schedule: Q04DX003 (ip), vehicle: other): 90 % of control
T/C (dose: 200.0 mg/kg/injection, schedule: Q04DX003 (ip), vehicle: other): 95 % of control
T/C (dose: 400.0 mg/kg/injection, schedule: Q04DX003 (ip), vehicle: other): 115 % of control

CCCCCCCCCCC[N+](C)(C)CC(O)C[N+](C)(C)CCCCCCCCCCC
T/C (dose: 3.13 mg/kg/injection, schedule: Q01DX009 (ip), vehicle: saline): 102 % of control
T/C (dose: 6.25 mg/kg/injection, schedule: Q01DX009 (ip), vehicle: saline): 111 % of control
T/C (dose: 12.5 mg/kg/injection, schedule: Q01DX009 (ip), vehicle: saline): 118 % of control

CN(C)c1ccc(/C=C/c2ccnc3ccccc23)c(O)c1
T/C [2]: 113 % of control

O/N=c1/cc(-c2ccc(Cl)cc2)ss1
T/C (dose: 25.0 mg/kg/injection, schedule: Q01DX009 (ip), vehicle: saline): 114 % of control
T/C (dose: 50.0 mg/kg/injection, schedule: Q04DX003 (ip), vehicle: saline): 100 % of control and 113 % of control
T/C (dose: 100.0 mg/kg/injection, schedule: Q01DX009 (ip), vehicle: saline): 106 % of control
T/C (dose: 100.0 mg/kg/injection, schedule: Q04DX003 (ip), vehicle: saline): 93 % of control and 106 % of control and 110 % of control
T/C (dose: 200.0 mg/kg/injection, schedule: Q01DX009 (ip), vehicle: saline): 92 % of control
T/C (dose: 200.0 mg/kg/injection, schedule: Q04DX003 (ip), vehicle: saline): 96 % of control and 102 % of control
T/C (dose: 400.0 mg/kg/injection, schedule: Q01DX009 (ip), vehicle: saline): 96 % of control
T/C (dose: 400.0 mg/kg/injection, schedule: Q04DX003 (ip), vehicle: saline): 102 % of control
T/C (dose: 600.0 mg/kg/injection, schedule: Q04DX003 (ip), vehicle: saline): 90 % of control

Cc1[nH]c(=O)[nH]c(=O)c1NCCO
T/C (dose: 50.0 mg/kg/injection, schedule: Q01DX009 (ip), vehicle: water): 102 % of control
T/C (dose: 100.0 mg/kg/injection, schedule: Q01DX009 (ip), vehicle: water): 109 % of control
T/C (dose: 200.0 mg/kg/injection, schedule: Q01DX009 (ip), vehicle: water): 105 % of control
T/C (dose: 400.0 mg/kg/injection, schedule: Q01DX009 (ip), vehicle: water): 112 % of control

CCCCCCCCCCCCCC(=O)O[C@@H]1[C@@H](C)[C@@]2(O)[C@@H](C=C(CO)C[C@]3(O)C(=O)C(C)=C[C@@H]23)[C@@H]2C(C)(C)[C@]12OC(C)=O
T/C (dose: 0.03 mg/kg/injection, schedule: Q01DX009 (ip), vehicle: Klucel (hydroxypropylcellulose) (HPC)): 110 % of control
T/C (dose: 0.03 mg/kg/injection, schedule: Q01DX009 (ip), vehicle: saline + alcohol): 108 % of control
T/C (dose: 0.06 mg/kg/injection, schedule: Q01DX009 (ip), vehicle: Klucel (hydroxypropylcellulose) (HPC)): 100 % of control
T/C (dose: 0.06 mg/kg/injection, schedule: Q01DX009 (ip), vehicle: saline + alcohol): 110 % of control
T/C (dose: 0.12 mg/kg/injection, schedule: Q01DX009 (ip), vehicle: Klucel (hydroxypropylcellulose) (HPC)): 110 % of control
T/C (dose: 0.12 mg/kg/injection, schedule: Q01DX009 (ip), vehicle: saline + alcohol): 117 % of control
T/C (dose: 0.25 mg/kg/injection, schedule: Q01DX009 (ip), vehicle: Klucel (hydroxypropylcellulose) (HPC)): 92 % of control
T/C (dose: 0.25 mg/kg/injection, schedule: Q01DX009 (ip), vehicle: saline + alcohol): 116 % of control
T/C (dose: 0.5 mg/kg/injection, schedule: Q01DX009 (ip), vehicle: Klucel (hydroxypropylcellulose) (HPC)): 100 % of control
T/C (dose: 0.5 mg/kg/injection, schedule: Q01DX009 (ip), vehicle: saline + alcohol): 104 % of control
T/C (dose: 1.0 mg/kg/injection, schedule: Q01DX009 (ip), vehicle: Klucel (hydroxypropylcellulose) (HPC)): 108 % of control
T/C (dose: 3.1 micrograms/kg/injection, schedule: Q01DX009 (ip), vehicle: gum acacia): 97 % of control and 108 % of control
T/C (dose: 3.1 micrograms/kg/injection, schedule: Q01DX009 (ip), vehicle: saline with Tween-80): 105 % of control
T/C (dose: 6.2 micrograms/kg/injection, schedule: Q01DX009 (ip), vehicle: gum acacia): 94 % of control
T/C (dose: 6.2 micrograms/kg/injection, schedule: Q01DX009 (ip), vehicle: saline with Tween-80): 109 % of control
T/C (dose: 12.5 micrograms/kg/injection, schedule: Q01DX009 (ip), vehicle: gum acacia): 106 % of control
T/C (dose: 12.5 micrograms/kg/injection, schedule: Q01DX009 (ip), vehicle: saline with Tween-80): 104 % of control
T/C (dose: 25.0 micrograms/kg/injection, schedule: Q01DX009 (ip), vehicle: gum acacia): 103 % of control and 118 % of control
T/C (dose: 25.0 micrograms/kg/injection, schedule: Q01DX009 (ip), vehicle: saline with Tween-80): 109 % of control
T/C (dose: 50.0 micrograms/kg/injection, schedule: Q01DX009 (ip), vehicle: gum acacia): 97 % of control and 108 % of control and 116 % of control
T/C (dose: 50.0 micrograms/kg/injection, schedule: Q01DX009 (ip), vehicle: saline with Tween-80): 114 % of control
T/C (dose: 100.0 micrograms/kg/injection, schedule: Q01DX009 (ip), vehicle: gum acacia): 106 % of control and 108 % of control
T/C (dose: 100.0 micrograms/kg/injection, schedule: Q01DX009 (ip), vehicle: saline with Tween-80): 113 % of control
T/C (dose: 200.0 micrograms/kg/injection, schedule: Q01DX009 (ip), vehicle: gum acacia): 101 % of control and 103 % of control and 113 % of control
T/C (dose: 200.0 micrograms/kg/injection, schedule: Q01DX009 (ip), vehicle: saline with Tween-80): 97 % of control
T/C (dose: 400.0 micrograms/kg/injection, schedule: Q01DX009 (ip), vehicle: gum acacia): 103 % of control
T/C (dose: 400.0 micrograms/kg/injection, schedule: Q01DX009 (ip), vehicle: saline with Tween-80): 103 % of control
T/C (dose: 800.0 micrograms/kg/injection, schedule: Q01DX009 (ip), vehicle: gum acacia): 100 % of control and 106 % of control

ClCCN(CCCl)c1ccc2c3c(cccc13)-c1ccccc1-2
T/C (dose: 66.0 mg/kg/injection, schedule: Q01DX009 (ip), vehicle: saline with Tween-80): 151 % of control
T/C [1]: 177 % of control
T/C (dose: 132.0 mg/kg/injection, schedule: Q04DX003 (ip), vehicle: saline with Tween-80): 160 % of control
T/C (dose: 150.0 mg/kg/injection, schedule: Q01DX009 (ip), vehicle: saline with Tween-80): 214 % of control
T/C [3]: 182 % of control
T/C (dose: 300.0 mg/kg/injection, schedule: Q04DX003 (ip), vehicle: saline with Tween-80): 226 % of control
